System: 996289-038-R-J1-PDC spheroid viability
Experiment: Anticancer human tumor 996289-038-R-J1-PDC patient-derived colon adenocarcinoma cell line growth inhibition [PI3K]
Conditions: spheroids with HUVEC and MSC; for IC50: curve of first compound; for viability, T/C: stronger effect = lower value
Method in brief: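 Spheroid viability read-out. Co-cultures contained the tumor line plus HUVEC and human MSCs. Each agent was paired with a PI3K inhibitor (inavolisib, alpelisib, duvelisib, copanlisib) across half-log dilutions starting at clinical Cmax, or at 10 microM when Cmax was unknown.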
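Also: spheroids exposed to compounds for seven days before viability read.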
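For viability, T/C in this document: luminescence used as a proxy for viable cell amount; percent viability relative to DMSO vehicle control as 100%.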

## CC(Cn1ccc(-c2ccc(C#N)c(Cl)c2)n1)NC(=O)c1cc(C(C)O)[nH]n1 (configuration not stated) + COc1c(OCCCN2CCOCC2)ccc2c3n(c(=NC(=O)c4cnc(N)nc4)nc12)CCN3
Second compound 0.00316 µM
  IC50: > 10 µM
Second compound 0.01 µM
  IC50: > 10 µM
Second compound 0.0316 µM
  IC50: > 10 µM
Second compound 0.1 µM
  IC50: > 10 µM
Second compound 0.316 µM
  IC50: < 0.0316 µM
Second compound 1 µM
  IC50: < 0.0316 µM
Second compound 0.00316 µM, first compound 0.0316 µM
  viability, T/C: 103%
Second compound 0.00316 µM, first compound 0.1 µM
  viability, T/C: 91.1%
Second compound 0.00316 µM, first compound 0.316 µM
  viability, T/C: 98%
Second compound 0.00316 µM, first compound 1 µM
  viability, T/C: 99%
Second compound 0.00316 µM, first compound 3.16 µM
  viability, T/C: 96.9%
Second compound 0.00316 µM, first compound 10 µM
  viability, T/C: 102%
Second compound 0.01 µM, first compound 0.0316 µM
  viability, T/C: 90.5%
Second compound 0.01 µM, first compound 0.1 µM
  viability, T/C: 97.2%
Second compound 0.01 µM, first compound 0.316 µM
  viability, T/C: 92.6%
Second compound 0.01 µM, first compound 1 µM
  viability, T/C: 93.1%
Second compound 0.01 µM, first compound 3.16 µM
  viability, T/C: 103%
Second compound 0.01 µM, first compound 10 µM
  viability, T/C: 89.7%
Second compound 0.0316 µM, first compound 0.0316 µM
  viability, T/C: 69.7%
Second compound 0.0316 µM, first compound 0.1 µM
  viability, T/C: 79.4%
Second compound 0.0316 µM, first compound 0.316 µM
  viability, T/C: 85.6%
Second compound 0.0316 µM, first compound 1 µM
  viability, T/C: 80%
Second compound 0.0316 µM, first compound 3.16 µM
  viability, T/C: 78.9%
Second compound 0.0316 µM, first compound 10 µM
  viability, T/C: 78.7%
Second compound 0.1 µM, first compound 0.0316 µM
  viability, T/C: 55%
Second compound 0.1 µM, first compound 0.1 µM
  viability, T/C: 56.6%
Second compound 0.1 µM, first compound 0.316 µM
  viability, T/C: 66.7%
Second compound 0.1 µM, first compound 1 µM
  viability, T/C: 64.8%
Second compound 0.1 µM, first compound 3.16 µM
  viability, T/C: 72.3%
Second compound 0.1 µM, first compound 10 µM
  viability, T/C: 56.1%
Second compound 0.316 µM, first compound 0.0316 µM
  viability, T/C: 34.1%
Second compound 0.316 µM, first compound 0.1 µM
  viability, T/C: 38.9%
Second compound 0.316 µM, first compound 0.316 µM
  viability, T/C: 40%
Second compound 0.316 µM, first compound 1 µM
  viability, T/C: 41%
Second compound 0.316 µM, first compound 3.16 µM
  viability, T/C: 40.5%
Second compound 0.316 µM, first compound 10 µM
  viability, T/C: 39.9%
Second compound 1 µM, first compound 0.0316 µM
  viability, T/C: 25.2%
Second compound 1 µM, first compound 0.1 µM
  viability, T/C: 17.5%
Second compound 1 µM, first compound 0.316 µM
  viability, T/C: 23%
Second compound 1 µM, first compound 1 µM
  viability, T/C: 18%
Second compound 1 µM, first compound 3.16 µM
  viability, T/C: 22.1%
Second compound 1 µM, first compound 10 µM
  viability, T/C: 17.5%

Source: PubChem BioAssay AID1963965 (Molecular Pharmacology Branch, DTP, NCI, 2024)
